Test results published in the NIST ThermoML archive (doi:10.1021/je049534w).
“And” between values parts separate entries of the source, which are not always exact repeats. Identical values can stand only once.

Assays:
[1] = Solid-liquid equilibrium temperature; conditions: Crystal, Speed of sound
[2] = Liquid, Linear variable-path acoustic interferometer

CCCCn1cc[n+](C)c1.F[P-](F)(F)(F)(F)F [1-butyl-3-methylimidazolium hexafluorophosphate]
[1]
Conditions	Solid-liquid equilibrium temperature [K]
100 kPa	285
34000 kPa	291.15
40200 kPa	293.15
42500 kPa	294.16
55000 kPa	296.15
88900 kPa	303.15

[2]
Conditions	speed of sound
283.16 K, 100 kPa	1455.5 m/s and 1457.6 m/s
283.16 K, 5088 kPa	1468.6 m/s
283.16 K, 5131 kPa	1470.6 m/s
283.16 K, 10263 kPa	1481.8 m/s
283.16 K, 20249 kPa	1506.7 m/s
283.16 K, 29954 kPa	1529.9 m/s
283.16 K, 29995 kPa	1532.5 m/s
283.16 K, 44961 kPa	1564.2 m/s
283.16 K, 59682 kPa	1596.7 m/s
283.16 K, 59829 kPa	1599.6 m/s
283.16 K, 79904 kPa	1638.6 m/s
283.16 K, 99077 kPa	1677.1 m/s
283.16 K, 124179 kPa	1724.4 m/s
283.16 K, 150925 kPa	1772.6 m/s
291.15 K, 100 kPa	1440.2 m/s
291.15 K, 5069 kPa	1453.3 m/s
291.15 K, 10166 kPa	1466.6 m/s
291.15 K, 20400 kPa	1492.4 m/s
291.15 K, 30019 kPa	1515.7 m/s
291.15 K, 44920 kPa	1550 m/s
291.15 K, 59912 kPa	1583.2 m/s
293.16 K, 100 kPa	1432.8 m/s and 1431.6 m/s
293.16 K, 5157 kPa	1446.5 m/s
293.16 K, 10195 kPa	1459 m/s
293.16 K, 20215 kPa	1484.2 m/s
293.16 K, 29959 kPa	1507.9 m/s
293.16 K, 44757 kPa	1542.2 m/s
293.16 K, 59732 kPa	1574.7 m/s
293.16 K, 78627 kPa	1613.8 m/s
293.16 K, 99149 kPa	1654.5 m/s
294.16 K, 5125 kPa	1444.5 m/s
294.16 K, 10105 kPa	1457.2 m/s
294.16 K, 20357 kPa	1483.2 m/s
294.16 K, 29785 kPa	1506 m/s
303.16 K, 100 kPa	1410.3 m/s
303.16 K, 5078 kPa	1423.5 m/s
303.16 K, 10204 kPa	1437.1 m/s
303.16 K, 20225 kPa	1462.8 m/s
303.16 K, 44714 kPa	1521.3 m/s
303.16 K, 59773 kPa	1554.6 m/s
303.16 K, 98921 kPa	1634.4 m/s
313.16 K, 100 kPa	1389.5 m/s
313.16 K, 5010 kPa	1402.8 m/s
313.16 K, 10043 kPa	1416.4 m/s
313.16 K, 20319 kPa	1443.3 m/s
313.16 K, 41702 kPa	1495.1 m/s
313.16 K, 44866 kPa	1502.9 m/s
313.16 K, 59754 kPa	1536.3 m/s
313.16 K, 79721 kPa	1578.6 m/s
313.16 K, 99097 kPa	1617.4 m/s
313.16 K, 125283 kPa	1662.2 m/s
323.25 K, 100 kPa	1368 m/s
323.25 K, 5061 kPa	1381.8 m/s
323.25 K, 9942 kPa	1395.4 m/s
323.25 K, 20234 kPa	1422.7 m/s
323.25 K, 29721 kPa	1446.8 m/s
323.25 K, 44935 kPa	1482.2 m/s
323.25 K, 59711 kPa	1516 m/s
323.25 K, 79553 kPa	1557.9 m/s
323.25 K, 98901 kPa	1592.5 m/s
